Test results reported in ChEMBL document CHEMBL5233260, “Diverse chemical space of indoleamine-2,3-dioxygenase 1 (Ido1) inhibitors” (Eur J Med Chem, 2021).
Values joined by “and” are separate entries in the source; they are usually repeats but may differ in a detail not shown here. Identical values can stand only once. Values belong to the compound of their own block, whether it stands above or below them.

Columns and labels:
[1] = biological target: T1, Indoleamine 2,3-dioxygenase 1 (Homo sapiens, UniProt P14902); assay: Inhibition of IDO1 (unknown origin)
Target sequence in this assay (P14902 whole entry): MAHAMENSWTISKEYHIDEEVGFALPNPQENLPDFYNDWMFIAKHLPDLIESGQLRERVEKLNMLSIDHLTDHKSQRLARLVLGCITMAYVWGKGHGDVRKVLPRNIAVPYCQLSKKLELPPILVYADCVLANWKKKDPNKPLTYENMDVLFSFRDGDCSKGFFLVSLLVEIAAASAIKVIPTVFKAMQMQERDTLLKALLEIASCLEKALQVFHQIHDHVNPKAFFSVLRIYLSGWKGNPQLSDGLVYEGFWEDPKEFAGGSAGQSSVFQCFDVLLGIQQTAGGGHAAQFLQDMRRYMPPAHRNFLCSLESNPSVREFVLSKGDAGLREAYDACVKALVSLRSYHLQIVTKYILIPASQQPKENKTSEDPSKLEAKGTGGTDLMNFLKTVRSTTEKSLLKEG

[2] = biological target: T1, Indoleamine 2,3-dioxygenase 1; assay: Inhibition of IDO1 in human HeLa cells assessed as inhibition of kynurenine production incubated for 30 mins by microplate reader based analysis; type: cell-based
Target sequence in this assay (P14902 whole entry): as above

[3] = biological target: T1, Indoleamine 2,3-dioxygenase 1; assay: Inhibition of human IDO1 expressed in Escherichia coli using L-tryptophan as substrate incubated for 30 mins by methylene blue dye based microplate reader analysis
Target sequence in this assay (P14902 whole entry): as above

[4] = biological target: T1, Indoleamine 2,3-dioxygenase 1; assay: Binding affinity to IDO1 (unknown origin) assessed as inhibition constant
Target sequence in this assay (P14902 whole entry): as above

[5] = biological target: T2, Indoleamine 2,3-dioxygenase 1 (Mus musculus, UniProt P28776); assay: Inhibition of mouse IDO1 using L-tryptophan as substrate by methylene blue dye based analysis
[6] = biological target: T1, Indoleamine 2,3-dioxygenase 1; assay: Inhibition of human IDO1 using L-tryptophan as substrate by methylene blue dye based spectrometric method
Target sequence in this assay (P14902 whole entry): as above

[7] = biological target: T1, Indoleamine 2,3-dioxygenase 1; assay: Inhibition of IDO1 in human A549 cells by ELISA assay; type: cell-based
Target sequence in this assay (P14902 whole entry): as above

[8] = biological target: T1, Indoleamine 2,3-dioxygenase 1; assay: Inhibition of IDO1 (unknown origin) at 1 uM relative to control
Target sequence in this assay (P14902 whole entry, looked up): as the sequence (P14902 whole entry) above

[9] = biological target: T1, Indoleamine 2,3-dioxygenase 1; assay: Inhibition of IDO1 (unknown origin) at 1 mM relative to control
Target sequence in this assay (P14902 whole entry, looked up): as the sequence (P14902 whole entry) above

[10] = biological target: T1, Indoleamine 2,3-dioxygenase 1; assay: Inhibition of IDO1 in HEK293 cells at 20 uM incubated for 24 hrs by LC-MS/MS analysis relative to control; type: cell-based
Target sequence in this assay (P14902 whole entry, looked up): as the sequence (P14902 whole entry) above

[11] = biological target: T1, Indoleamine 2,3-dioxygenase 1; assay: Inhibition of human recombinant IDO1 using L-tryptophan as substrate incubated for 10 mins by absorbance based analysis
[12] = biological target: T1, Indoleamine 2,3-dioxygenase 1; assay: Inhibition of human IDO1 incubated for 30 mins by microplate reader based analysis
[13] = biological target: T1, Indoleamine 2,3-dioxygenase 1; assay: Inhibition of human IDO1
[14] = biological target: T1, Indoleamine 2,3-dioxygenase 1; assay: Inhibition of IDO1 in human HeLa cells; type: cell-based
[15] = biological target: T1, Indoleamine 2,3-dioxygenase 1; assay: Inhibition of human recombinant N-terminal his6-tagged IDO1 expressed in Escherichia coli BL21 using L-tryptophan as substrate incubated for 1 hr by methylene blue dye based UV-Vis spectrophotometer analysis
[16] = biological target: T1, Indoleamine 2,3-dioxygenase 1; assay: Inhibition of IDO1 in human MDA-MB-231 cells; type: cell-based
[17] = biological target: T2, Indoleamine 2,3-dioxygenase 1; assay: Inhibition of IDO1 in mouse LLTC cell line; type: cell-based
[18] = biological target: T1, Indoleamine 2,3-dioxygenase 1; assay: Inhibition of IDO1 (unknown origin) at 10 uM relative to control
Target sequence in this assay (P14902 whole entry, looked up): as the sequence (P14902 whole entry) above

[19] = biological target: T1, Indoleamine 2,3-dioxygenase 1; assay: Inhibition of human IDO1 using L-tryptophan as substrate incubated for 1 hr by absorbance based analysis

T2 sequence (P28776 whole entry): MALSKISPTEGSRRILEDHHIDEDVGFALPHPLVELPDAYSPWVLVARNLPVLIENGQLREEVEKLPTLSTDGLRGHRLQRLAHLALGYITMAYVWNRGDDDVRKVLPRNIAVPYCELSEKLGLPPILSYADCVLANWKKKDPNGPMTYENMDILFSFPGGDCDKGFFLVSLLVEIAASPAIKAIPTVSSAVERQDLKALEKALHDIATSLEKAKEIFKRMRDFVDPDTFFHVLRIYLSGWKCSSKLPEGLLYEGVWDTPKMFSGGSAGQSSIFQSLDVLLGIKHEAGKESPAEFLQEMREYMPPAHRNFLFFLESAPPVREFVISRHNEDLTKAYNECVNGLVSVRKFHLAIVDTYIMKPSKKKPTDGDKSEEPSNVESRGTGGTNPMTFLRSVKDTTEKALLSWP

IC50 [1]: 0.7 µM
SMILES: COC1=C(OC)C(=O)C(Nc2ccccc2)=C(C)C1=O

IC50 [2]: < 1 µM
SMILES: Cc1cc(Cl)nc2onc(N)c12

IC50 [1]: < 1 µM
SMILES: O=C(Cc1ccccc1)Nc1ccc(CCOc2ccccc2-c2cnc[nH]2)cc1

IC50 [1]: 1.18 µM
SMILES: COc1c(C(C)=O)c(C)cc2cc3c(c(O)c12)C(=O)C(C)(C)C(=O)C3(C)C

IC50 [1]: 74 µM
SMILES: Brc1cc(Nc2ccc3nonc3c2)c2cn[nH]c2c1

IC50 [3]: 10 µM
SMILES: COC1=CC(=O)c2c(c(CO)c(C)n2C)C1=O

SMILES: CC12CCCc3coc(c31)C(=O)c1cc3c(cc12)C(=O)C1C(NCCS1(=O)=O)C3=O (configuration not stated)
Ki [4]: 0.025 µM

IC50 [1]: 6.36 µM
SMILES: CCc1c(OC)cc2c(c1O)C(=O)C[C@@H](OC)[C@@H]2O

Ki [4]: 0.21 µM
SMILES: CCc1c(C)cc2c(c1O)C(=O)C1=C(C2=O)C(C)(C)OC1(O)C(=O)OC (configuration not stated)

IC50 [3]: 1 µM
SMILES: COC1=CC(=O)c2sc(C)c(CO)c2C1=O

IC50 [5]: 17 µM
SMILES: Cc1ccc(Nc2ccc3c[n+]4ccccc4cc3c2)cc1

IC50 [6]: 19.6 µM
SMILES: c1ccc(-c2[nH]nc3ccccc23)cc1

IC50 [5]: > 66 µM
SMILES: COc1ccc(Nc2ccc3c[n+]4ccccc4cc3c2)cc1

IC50 [6]: 0.72 µM
SMILES: O=C(NNc1ccccc1)c1n[nH]c2ccccc12

IC50 [7]: 0.74 µM
SMILES: CC(=O)NCCc1c(C(=O)c2ccccc2[N+](=O)[O-])[nH]c2ccc(Cl)cc12

inhibition [8]: 75%
SMILES: N#Cc1ccc(Cc2cn(Cc3cnc4scc(-c5ccc(Br)cc5)n34)nn2)cc1

IC50 [5]: 0.56 µM
SMILES: c1ccc(Nc2ccc3c[n+]4ccccc4cc3c2)cc1

inhibition [9]: 30%
SMILES: O=C(O)C[C@H]1CNC(=O)c2cc(Br)c(Br)n21

IC50 [1]: 160 µM
SMILES: C=C1CC[C@@H]2[C@](C)(CO)[C@H](O)CC[C@@]2(C)[C@@H]1C/C=C1/C(=O)OC[C@H]1O [ANDROGRAPHOLIDE]

IC50 [3]: 0.1 µM
SMILES: COC1=CC(=O)c2c(nc(COc3ccc([N+](=O)[O-])cc3)n2C)C1=O

inhibition [10]: 80%
SMILES: O/N=C(\Nc1ccc(F)c(Br)c1)c1cccc2cn[nH]c12

IC50 [6]: 9.52 µM
SMILES: c1cncc(-c2n[nH]c3ccccc23)c1

IC50 [5]: > 50 µM
SMILES: CN(C)c1ccc(Nc2ccc3c[n+]4ccccc4cc3c2)cc1

IC50 [11]: 0.071 µM
SMILES: COc1nsc2c1C(=O)c1c(O)cccc1C2=O

IC50 [12]: 5 µM
SMILES: COc1cc(O)c2c(c1)C(=O)C1=C(C2=O)[C@@H](C)O[C@@H](C)C1

IC50 [5]: 0.53 µM
SMILES: Fc1ccc(Nc2ccc3c[n+]4ccccc4cc3c2)cc1

IC50 [6]: 17 µM
SMILES: Cc1ccc(S(=O)(=O)NNC(=O)c2n[nH]c3ccccc23)cc1

Ki [4]: 7 µM
SMILES: NC(Cc1csc2ccccc12)C(=O)O (configuration not stated)

IC50 [5]: 39.6 µM
SMILES: Clc1cccc(Nc2ccc3c[n+]4ccccc4cc3c2)c1

IC50 [13]: 0.199 µM
EC50 [14]: 0.051 µM
SMILES: N#Cc1ccc(NC(=O)Nc2ccc(S(=O)(=O)NNc3ccc(Br)cc3)cc2)cc1

IC50 [15]: 0.092 µM and 0.028 µM
IC50 [16]: 0.028 µM
SMILES: NS(=O)(=O)NCCNC(=O)c1n[nH]nc1/C(=N/O)Nc1ccc(F)c(Br)c1

IC50 [1]: 0.6 µM
SMILES: COC1=C(OC)C(=O)C(Nc2ccccc2)=CC1=O

Ki [4]: 2 µM
SMILES: COC(=O)/C1=C/c2c([nH]c3ccccc23)/C(C(=O)OC)=C\c2c1[nH]c1ccccc21 [CAULERPIN]

IC50 [17]: 6 µM
SMILES: COc1cccc2c1C(=O)C1=C(C[C@H](Cn3cc(-c4ccccc4)nn3)O[C@@H]1C)C2=O

IC50 [1]: < 0.2 µM
SMILES: Nc1oc2cnccc2c1Nc1ccc(F)c(Cl)c1

inhibition [18]: > 70%
SMILES: O[C@H]1CCCC[C@@H]1CNc1cc(Br)cc2[nH]ncc12

IC50 [3]: 1 µM
SMILES: COC1=CC(=O)c2c(c(CO)nn2C)C1=O

Ki [4]: 0.086 µM
SMILES: CC12CCCc3coc(c31)C(=O)c1cc3c(cc12)C(=O)C1NCCS(=O)(=O)C1C3=O (configuration not stated)

IC50 [1]: 2 µM
SMILES: CS[C@@]1(C)C(=O)N2[C@H]3N(c4ccc5oc6cc(=O)c(N)c(C(=O)O)c-6nc5c4C(=O)O)c4ccccc4[C@@]3(c3c[nH]c4ccccc34)[C@H](O)[C@]2(SC)C(=O)N1C

IC50 [1]: 10.1 µM
SMILES: CNC(=O)[C@H]1[C@@H](OC)C2(O)c3ccccc3NC(=O)[C@@]2(C(=O)N[C@@H](CCC(=O)OC)C(=O)C=C(C)C)N1C (some centres not stated)

IC50 [1]: 0.27 µM
SMILES: COC1=C(OC)C(=O)C(Nc2ccc(Cl)cc2)=CC1=O

IC50 [17]: 0.8 µM
SMILES: COc1ccc2c(c1)C(=O)C1=C(C2=O)[C@@H](C)O[C@@H](CC(=O)O)C1

IC50 [1]: 0.5 µM
SMILES: COC(=O)[C@H]1CCCN1C[C@@H](O)c1c(OC)cc2c(c1O)C(=O)c1cc(O)c(C)cc1C2=O

inhibition [8]: 70%
SMILES: O=C(NCc1cnc2scc(-c3ccc(Br)cc3)n12)n1cc(C2CC2)nn1

IC50 [1]: 0.4 µM
SMILES: COC1=C(OC)C(=O)C(Nc2cccc(NC(=O)Nc3ccccc3)c2)=C(C)C1=O

IC50 [6]: 5.46 µM
SMILES: Clc1ccc(-c2n[nH]c3ccccc23)cc1Cl

Ki [4]: 70 µM
SMILES: NC(Cc1coc2ccccc12)C(=O)O (configuration not stated)

Ki [4]: 0.14 µM
SMILES: CCc1cc2c(cc1C)C(=O)C1=C(C2=O)C(OC)(C(=O)OC)OC1(C)C (configuration not stated)

IC50 [1]: 32.3 µM
SMILES: COC1=CC(=O)c2c(O)c3c(c4c2[C@]12CC(=O)C[C@H]2[C@@]1(C[C@H](O)[C@H](O)CO1)O4)C[C@](C)(O)[C@H](O)C3

IC50 [3]: 0.5 µM
SMILES: COC1=CC(=O)c2c(oc(C)c2CO)C1=O

IC50 [5]: 0.51 µM
SMILES: Clc1ccc(Nc2ccc3c[n+]4ccccc4cc3c2)cc1

IC50 [2]: 0.1 µM
SMILES: CCN(c1ncc(C2(C(=O)O)CCC2)cc1Nc1ccc(Cl)cc1)C1CCOCC1

IC50 [3]: 7.2 µM
SMILES: COC(=O)c1c(C)oc2c1C(=O)C(OC)=CC2=O

IC50 [19]: 0.81 µM
SMILES: O=C(NC(c1cccc(Br)c1)n1ccnc1)c1ccc([N+](=O)[O-])cc1 (configuration not stated)

IC50 [1]: 2.8 µM
SMILES: COC1=C(OC)C(=O)C(CCC(C)C)=C(C)C1=O
